How the values were obtained:
[1] = Stability of malathion compositions, degradation measured by HPLC; format: physicochemical
Protocol: The inventors measured malathion degradation by HPLC. The HPLC method was reverse-phase HPLC with UV detection (210 nm). The column used is an xTERRA C18 with a water/acetonitrile gradient and a flow rate of 0.6 ml/min. The malathion compositions tested comprise either malathion on its own, or a composition of 50% malathion and 50% isopropanol, or a composition of 50% malathion and 50% polydimethylcyclosiloxane, or a composition of 33% malathion with 33% isopropanol and 33% polydimethylcyclosiloxane. These compositions also contain excipients such as povidone as viscosity agent.
The stability of these compositions was assessed for 114 hours at 60° Celsius (Table 1).

lice = assay: Pediculicidal activity of volatile silicone oil itself (stated, no method); format: in vivo, Pediculus humanus var capitis
nits = assay: Nit-killing activity of volatile silicone oil itself (stated, no method); format: in vivo, Pediculus humanus var capitis

Row | Compound | Malathion content (%) ([1]; T0) | Malathion content (%) ([1]; T 72 hrs 60° C.) | Malathion loss (%) ([1]; T 72 hrs 60° C.) | Malathion content (%) ([1]; T 114 hrs 60° C.) | Malathion loss (%) ([1]; T 114 hrs 60° C.) | pediculicidal activity (lice) [%] | nit-killing activity (nits) [%]
1 | CCOC(=O)CC(SP(=S)(OC)OC)C(=O)OCC (stereo not shown) [Malathion alone, malathion] | 100.90 | 100.3 | (−0.1) % | 91 | (−9.8) % | – | –
2 | C[Si]1(C)O[Si](C)(C)O[Si](C)(C)O[Si](C)(C)O[Si](C)(C)O1 [decamethylcyclopentasiloxane] | – | – | – | – | – | 100 | ~70

— US20110269718A1, “PHARMACEUTICAL COMPOSITION CONTAINING MALATHION AND VOLATILE CYCLIC SILICONE” (priority 2010, published 2011)
